Tests used:
[1] = biological target: T1, recombinant RNR (RRM1 + RRM2) (Homo sapiens, UniProt P31350); assay: recombinant RNR activity assay, CDP to dCDP conversion; type: biochemical
T1 construct: with Ribonucleoside-diphosphate reductase large subunit
T1 sequence (P31350 1-389): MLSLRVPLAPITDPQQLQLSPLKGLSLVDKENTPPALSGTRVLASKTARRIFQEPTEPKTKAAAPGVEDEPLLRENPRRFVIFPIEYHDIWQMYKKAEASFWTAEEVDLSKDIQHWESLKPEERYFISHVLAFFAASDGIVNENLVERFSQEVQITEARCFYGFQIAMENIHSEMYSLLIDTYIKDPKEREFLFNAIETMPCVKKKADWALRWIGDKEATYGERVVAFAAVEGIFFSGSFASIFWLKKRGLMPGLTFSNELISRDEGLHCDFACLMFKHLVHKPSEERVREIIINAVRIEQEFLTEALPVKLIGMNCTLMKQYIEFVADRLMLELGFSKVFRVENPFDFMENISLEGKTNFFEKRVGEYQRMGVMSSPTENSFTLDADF
T1 sequence (P23921 1-792 partner): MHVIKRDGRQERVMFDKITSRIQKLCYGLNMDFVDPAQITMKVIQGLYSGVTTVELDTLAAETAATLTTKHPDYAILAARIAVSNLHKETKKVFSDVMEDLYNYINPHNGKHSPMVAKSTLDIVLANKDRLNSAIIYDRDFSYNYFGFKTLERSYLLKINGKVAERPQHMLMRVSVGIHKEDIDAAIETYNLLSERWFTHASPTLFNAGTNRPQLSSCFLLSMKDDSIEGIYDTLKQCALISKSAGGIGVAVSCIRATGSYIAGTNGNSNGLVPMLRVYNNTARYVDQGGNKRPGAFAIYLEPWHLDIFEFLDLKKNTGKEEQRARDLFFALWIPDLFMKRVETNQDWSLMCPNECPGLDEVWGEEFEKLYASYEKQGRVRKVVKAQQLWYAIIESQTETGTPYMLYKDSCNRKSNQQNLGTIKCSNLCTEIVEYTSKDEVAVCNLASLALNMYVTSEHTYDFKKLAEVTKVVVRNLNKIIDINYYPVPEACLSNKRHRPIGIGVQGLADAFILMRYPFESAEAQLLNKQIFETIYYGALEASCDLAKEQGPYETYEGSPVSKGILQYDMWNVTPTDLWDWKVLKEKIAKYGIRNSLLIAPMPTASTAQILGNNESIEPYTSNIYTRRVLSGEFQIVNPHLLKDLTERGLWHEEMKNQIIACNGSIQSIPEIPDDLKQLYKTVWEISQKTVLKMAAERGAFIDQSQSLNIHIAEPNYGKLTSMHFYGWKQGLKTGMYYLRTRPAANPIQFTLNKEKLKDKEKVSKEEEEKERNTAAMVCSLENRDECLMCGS

[2] = biological target: T2, RRM2 (Homo sapiens, UniProt P31350); assay: microscale thermophoresis; type: binding
T2 construct: recombinant purified RRM2, lysine-labelled for MST
T2 sequence (P31350 1-389): T1 sequence (P31350 1-389)

NC(=O)NO [HU, hydroxyurea, reference compound]
IC50 [1]: 29.8 µM

Oc1ccc(OCc2ccccc2)cc1 [MB, monobenzone]
IC50 [1]: 0.25 µM | Kd [2]: 22.5 ± 14 µM

Reference: publication PMC9564123, “Identification of Monobenzone as a Novel Potential Anti-Acute Myeloid Leukaemia Agent That Inhibits RNR and Suppresses Tumour Growth in Mouse Xenograft Model” (Cancers, 2022)
